The conditions of data set [1]: in vivo. The text has this: Toxicity of peptide, compounds, and compositions can be assessed for toxicity. Useful factors for assessing toxicity include body weight, serum cholesterol and triglyceride, and weight of liver and spleen. Liver and kidney functions can be monitored by blood tests.
Data set [2] deals with T1, p32 protein (Homo sapiens, UniProt Q07021).
T1 construct: 6xHis; host or cells: Rosetta-gami-2 cells (Novagen); an E. coli strain by own knowledge
T1 sequence (Q07021 74-282): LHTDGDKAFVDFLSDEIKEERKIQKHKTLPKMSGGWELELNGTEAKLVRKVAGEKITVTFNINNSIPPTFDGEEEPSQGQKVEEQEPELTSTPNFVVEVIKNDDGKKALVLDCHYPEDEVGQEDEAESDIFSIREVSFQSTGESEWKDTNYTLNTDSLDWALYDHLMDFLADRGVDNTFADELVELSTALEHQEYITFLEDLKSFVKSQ
Put plainly: Fluorescence polarization binding of FAM-labeled peptides to p32 (KD). The settings on record: affinity of binding to p32. As to the method:
FIGS. 2A-2D are graphs showing FP- and phage binding-based validation of p32 binding peptides and hit compounds. […] Measurements were performed with PheraStar FS plate reader (BMG Labtech, Ortenberg, Germany) on 384-well plate. (B) Affinity of the 7 hit compounds in dose-dependent (8.25 μM to 100 μM) inhibition of FAM-TT1 binding to p32 in FP assay. (C) Assessment of hit compound binding to a non-target secondary protein, NRP-1, to determine the specificity of the hit compounds in FP assay. A known NRP-1 binding peptide, RPARPAR (SEQ ID NO:18), was used as a control. (D) Effect of the hit compounds on the TT1 phage binding to p32 protein. TT1 phage binding to p32 in the presence of 100 μM hit compounds was determined in ELISA-type of binding assay. Each data point presents average±S.D., n=4.
FIG. 6 is a graph showing the effect of buffer solution on interaction of TT1 and p32. […] The binding was measured by fluorescence polarization (FP) and observed as increased FP value. Binding constants (KD) were calculated by fitting the binding curves into Michaelis-Menten kinetics. […]
Fluorescence polarization (FP)-based assay was used for solution-based screening of compound libraries for p32 binding compounds. […] The protein was purified by IMAC using HIS-select resin (Sigma) with an imidizole gradient from 20-300 mM and eluted fractions were analyzed on analytical SDS-PAGE. […]
(In general: Polarisation of emitted light reports the rotation of a fluorescent probe.)

Experimental findings from patent publication US20200268832A1, “COMPOSITIONS FOR DELIVERY TO AND TREATMENT OF ATHEROSCLEROTIC PLAQUES” (Sanford Burnham Prebys Medical Discovery Institute, priority 2015, published 2020) are described below.

pKd: −log10 of the molar value. Where a SMILES comes first, the peptide text is derived from it. Bridges are numbered along the chain shown (N, C = ends).

In the case of `C[C@@H](O)[C@@H]1NC(=O)[C@H](CCCNC(=N)N)NC(=O)[C@H](CCCCN)NC(=O)[C@H](CC(N)=O)NC(=O)CNC(=O)[C@@H](N)CSSC[C@@H](C(=O)O)NC(=O)CNC(=O)[C@H](CCCNC(=N)N)NC1=O` [LyP-1, CGNKRTRGC], the “toxicity (body weight, serum cholesterol and triglyceride, weight of liver and spleen, liver and kidney functions)” value in data set [1] was “no differences between LyP-1 and control groups”. As a reminder, the pKd is −log10 of the Kd, conventionally taken in molar units. `C[C@@H]1NC(=O)CNC(=O)[C@H](CCCNC(=N)N)NC(=O)[C@H](CCCCN)NC(=O)[C@@H](N)CSSC[C@@H](C(=O)O)NC(=O)[C@H]([C@@H](C)O)NC(=O)[C@H](CO)NC(=O)[C@H](CCCNC(=N)N)NC1=O` [TT1, CKRGARSTC] (H-CKRGARSTC-OH; disulfide 1-9) had a negative-log Kd (pKd) in data set [2] of 5.64.
